Measured values published in patent US7736537B1, “Replacement solvents having improved properties for refrigeration flushes” (Mainstream Engineering Corp., priority 2008, dated 2010).
Read-outs that look alike come from different tables or passages of the source.

Assays:
[1] = pure solvent; cited from earlier work
[2] = From the text: Parameters such as the lethal dose 50 (LD50), lethal concentration 50 (LC50), cardiac sensitization, skin irritation, and mutagenicity (e.g., via the Ames test) can be used as toxicity metrics. The LDn or LCn abbreviations, where n is the percent lethality, are used for the dose of a toxicant lethal to n % of a test population. […] Cardiac sensitization is a measure of the ability of a compound to cause cardiac arrhythmia under stress.
The property modification components are chosen from a list of potential replacement solvents. These compounds included halogenated compounds such as halogenated acetates, alcohols, alkanes, cycloalkanes, alkenes, cycloalkenes, amines, anhydrides, aromatics, carbonyls, diones, esters, ethers, heterocyclics and ketones.

[3] = solubility parameter, Table 1; cited from earlier work
[4] = cited from earlier work; for BP: Table 1
[5] = Test 2 - Moisture retention (Karl Fischer titration); format: physicochemical
Experimental: Each solvent (5 g) was put into a small vial and the individual samples were titrated with a Karl Fischer titration machine to evaluate how much moisture was contained in each. De-ionized water (1 g) was then added to each vial, which ensured that each sample was saturated with moisture. The samples were then agitated and allowed to phase separate. Karl Fischer analysis of the organic layer of each solvent was performed after phase separation was complete.
The difference between the saturated moisture percent and the starting sample moisture percent is the amount that was absorbed by the solvent.

[6] = Test 3 - Acid retention (titration before and after concentrated HCl); format: physicochemical
Experimental: In order to measure the ability of each solvent to absorb acid, a titration of each solvent before and after concentrated HCl addition was performed. The difference between how much titrant was needed to neutralize the solvent after the addition of acid and the amount of titrant needed to neutralize the initial solvent was a simple way to determine how much acid was absorbed by each solvent. Mixture A advantageously absorbed more mineral acid than any of the three comparative solvents.

[7] = Test 4 - Oil retention (oil saturation point); format: physicochemical; conditions: oil added to 4.5 g solvent until phase separation
Experimental: An oil absorption test was performed on Mixtures A, B, C, D and the three comparative solvents to see if there was a saturation point associated with any of the solvents. A 4.5 g sample of each solvent was put into a vial and oil was added to each until a phase separation or other noticeable fluid property change took place. […]. Rx-11 and oil phase separated after 0.45 g, or 10 mass % of oil were added.

[8] = cardiac sensitization relative to CFC-113

SMILES: CC(C)CBr [1-bromo-2-methylpropane]
- flash point [1]: 11 °C

SMILES: FC(F)(F)O/C=C/OC(F)(F)Br [(E)-1-(bromodifluoromethoxy)-2-(trifluoromethoxy)ethene]
- CS/CS113 [2, 8]: 144.9
- SP [3]: 7.79 (cal/cm^3)^1/2
- BP [4]: 76.5 C.

SMILES: FC(F)(F)/C=C/OC(F)(F)Br [(E)-1-(bromodifluoromethoxy)-2-(trifluoromethyl)ethene]
- CS/CS113 [2, 8]: 54.3
- SP [3]: 7.73 (cal/cm^3)^1/2
- BP [4]: 57.8 C.

SMILES: FC(F)(F)/C=C/C(F)(F)Br [(E)-1-bromo-1,1,4,4,4-pentafluoro-2-butene]
- CS/CS113 [2, 8]: 36.6
- SP [3]: 7.37 (cal/cm^3)^1/2
- BP [4]: 40.0 C.

SMILES: F/C(=C(/F)C(F)(F)Br)C(F)(F)F [(E)-1-bromo-perfluoro-2-butene]
- CS/CS113 [2, 8]: 41.4
- SP [3]: 6.85 (cal/cm^3)^1/2
- BP [4]: 48.0 C.

SMILES: FC(F)(F)/C(Cl)=C(\Cl)C(F)(F)F [(E)-2,3-dichlorohexafluoro-2-butene]
- CS/CS113 [2, 8]: 72.4
- SP [3]: 7.15 (cal/cm^3)^1/2
- BP [4]: 68.5 C.

SMILES: F/C(=C(/Br)C(F)(F)F)C(F)(F)F [(E)-2-bromo-1,1,1,3,4,4,4-heptafluoro-2-butene]
- CS/CS113 [2, 8]: 48.6
- SP [3]: 6.82 (cal/cm^3)^1/2
- BP [4]: 49.0 C.

SMILES: FC(F)(F)/C=C(/Br)C(F)(F)F [(E)-2-bromo-1,1,1,4,4,4-hexafluoro-2-butene]
- CS/CS113 [2, 8]: 42.7
- SP [3]: 7.06 (cal/cm^3)^1/2
- BP [4]: 45.1 C.

SMILES: F/C(OC(F)(F)Br)=C(\F)C(F)(F)F [(Z)-1-(bromodifluoromethoxy)-1,2,3,3,3-pentafluoro-1-propene]
- CS/CS113 [2, 8]: 70.1
- SP [3]: 7.22 (cal/cm^3)^1/2
- BP [4]: 65.2 C.

SMILES: FC(F)(F)O/C=C\OC(F)(F)Br [(Z)-1-(bromodifluoromethoxy)-2-(trifluoromethoxy)ethene]
- CS/CS113 [2, 8]: 144.9
- SP [3]: 7.79 (cal/cm^3)^1/2
- BP [4]: 76.5 C.

SMILES: FC(F)(F)/C=C\OC(F)(F)Br [(Z)-1-(bromodifluoromethoxy)-2-(trifluoromethyl)ethene]
- CS/CS113 [2, 8]: 54.3
- SP [3]: 7.63 (cal/cm^3)^1/2
- BP [4]: 57.8 C.

SMILES: FC(F)(F)/C=C\C(F)(F)Br [(Z)-1-bromo-1,1,4,4,4-pentafluoro-2-butene]
- CS/CS113 [2, 8]: 36.6
- SP [3]: 7.25 (cal/cm^3)^1/2
- BP [4]: 40.0 C.

SMILES: F/C(Br)=C(/F)OCC(F)(F)F [(Z)-1-bromo-1,2-difluoro-2-(2,2,2-trifluoroethoxy)-ethene]
- CS/CS113 [2, 8]: 52.7
- SP [3]: 7.61 (cal/cm^3)^1/2
- BP [4]: 87.9 C.

SMILES: F/C(=C(\F)C(F)(F)Br)C(F)(F)F [(Z)-1-bromo-perfluoro-2-butene]
- CS/CS113 [2, 8]: 41.4
- SP [3]: 6.78 (cal/cm^3)^1/2
- BP [4]: 48.0 C.

SMILES: F/C(=C(\Br)C(F)(F)F)C(F)(F)F [(Z)-2-bromo-1,1,1,3,4,4,4-heptafluoro-2-butene]
- CS/CS113 [2, 8]: 48.6
- SP [3]: 6.79 (cal/cm^3)^1/2
- BP [4]: 49.0 C.

SMILES: Fc1c(F)c(F)c(C(F)(F)Br)c(F)c1F [(bromodifluoromethyl)-pentafluorobenzene]
- CS/CS113 [2, 8]: 28.2
- SP [3]: 7.63 (cal/cm^3)^1/2
- BP [4]: 153.3 C.

SMILES: FC(Cl)(Cl)Cl [CFC-11, trichlorofluoromethane]
- Saturated % ([5]; moisture in organic layer after 1 g water added to 5 g solvent): 0.007%
- Starting % ([5]; moisture in solvent before water addition): 0.000%
- Acid Number after acid ([6]; after concentrated HCl addition): 18 mg/L
- Acid Number before acid ([6]; before concentrated HCl addition): 9 mg/L
- Acid Absorbed ([6]; difference after minus before acid): 9 mg/L
- saturation point for oil [7]: no saturation point
- boiling point [4]: 47.6 °C

SMILES: CCO [Ethanol, ethanol]
- flash point [1]: 55 ° F.

SMILES: FC(F)(F)COCC(F)(F)F [bis(2,2,2-trifluoroethyl)ether]
- CS/CS113 [2, 8]: 109.2
- SP [3]: 7.32 (cal/cm^3)^1/2
- BP [4]: 62.5 C.

SMILES: FC(F)OC(F)(F)C(F)(F)OC(F)F [bis(difluoromethoxy)-tetrafluoroethane]
- CS/CS113 [2, 8]: 362.3
- SP [3]: 7.50 (cal/cm^3)^1/2
- BP [4]: 58.0 C.

SMILES: C=C(C)[C@H]1CC=C(C)CC1 [d-limonene]
- flash point [1]: around 120 ° F.

SMILES: COCC(C)OCC(C)OC (stereo not drawn) [dipropyleneglycol dimethylether]
- flash point [1]: 149 ° F.

SMILES: CCOC(F)(F)C(F)(F)C(F)(F)C(F)(F)F [ethyl-perfluorobutyl ether]
- CS/CS113 [2, 8]: 69.0
- SP [3]: 6.85 (cal/cm^3)^1/2
- BP [4]: 73.0 C.

SMILES: FCOC(C(F)(F)F)C(F)(F)F [fluoromethyl 2,2,2-trifluoro-1-(trifluoromethyl)ethyl ether, reference compound]
- CS/CS113 [2, 8]: 103.0
- SP [3]: 7.10 (cal/cm^3)^1/2
- BP [4]: 59.0 C.

SMILES: FC(OC(F)(F)C(F)(F)C(F)(F)F)C(F)(F)F (stereo not drawn) [heptafluoropropyl 1,2,2,2-tetrafluoroethyl ether]
- CS/CS113 [2, 8]: 195.7
- SP [3]: 6.62 (cal/cm^3)^1/2
- BP [4]: 41.0 C.

SMILES: CC(C)O [isopropyl alcohol]
- flash point [1]: 54 ° F.

SMILES: COC(C(F)(F)F)C(F)(F)F [methyl 2,2,2-trifluroethyl-1-(trifluoromethyl)ether]
- CS/CS113 [2, 8]: 107.3
- SP [3]: 7.26 (cal/cm^3)^1/2
- BP [4]: 50.8 C.

SMILES: CC(=O)C(F)(F)C(F)(F)C(F)(F)F [methyl heptafluoropropyl ketone]
- CS/CS113 [2, 8]: 25.4
- SP [3]: 7.32 (cal/cm^3)^1/2
- BP [4]: 63.5 C.

SMILES: COC(=O)C(F)(F)C(F)(F)F [methyl pentafluoropropanoate]
- CS/CS113 [2, 8]: 27.0
- SP [3]: 7.77 (cal/cm^3)^1/2
- BP [4]: 59.5 C.

SMILES: COC(F)(F)C(F)(F)C(F)(F)C(F)(F)F [methyl perfluorobutyl ether]
- CS/CS113 [2, 8]: 53.5
- SP [3]: 6.75 (cal/cm^3)^1/2
- BP [4]: 51.0 C.

SMILES: FC(F)(F)C(F)(F)C(F)(F)C(F)(F)C1(F)OC(F)(F)C(F)(F)C1(F)F (stereo not drawn) [perfluoro-2-butyltetrahydrofuran]
- CS/CS113 [2, 8]: 65.4
- SP [3]: 6.94 (cal/cm^3)^1/2
- BP [4]: 103.0 C.

SMILES: FC(F)(F)C(F)(F)C(F)(F)C(F)(F)OC(F)(F)C(F)(F)C(F)(F)C(F)(F)F [perfluorodibutyl ether]
- CS/CS113 [2, 8]: 896.2
- SP [3]: 6.65 (cal/cm^3)^1/2
- BP [4]: 110.1 C.

SMILES: Fc1c(F)c(F)c(C(F)(F)F)c(F)c1F [perfluorotoluene]
- CS/CS113 [2, 8]: 64.0
- SP [3]: 7.70 (cal/cm^3)^1/2
- BP [4]: 104.0 C.

SMILES: O=C(OC(=O)C(F)(F)F)C(F)(F)F [trifluoroacetic anhydride]
- CS/CS113 [2]: 236.9
- SP [3]: 7.29 (cal/cm^3)^1/2
- BP [4]: 40.2 C.
